# Experiments:
# AVM-BEC [1] = test: Proteome Profiler Human Angiogenesis Array of AVM-BEC lysates; format: cell-based
# From the text: (§1) Human surgical specimens were obtained following written informed consent from patients in accordance with Declaration of Helsinki guidelines and the Institutional Review Board (HS-04B053), at Keck School of Medicine, USC. AVM-BECs were isolated from brain tissues of patients who underwent microsurgical AVM resection. Control BECs were isolated from the structurally normal […] of patients who underwent temporal lobectomy for intractable epilepsy. Endothelial cell (EC) isolation and culture were described^5,9. (Stapleton C J, Armstrong D L, Zidovetzki R, Liu C Y, Giannotta S L, Hofman F M. Thrombospondin-1 modulates the angiogenic phenotype of human cerebral arteriovenous malformation endothelial cells. Neurosurgery. 2011; 68(5):1342-1353) (Ferreira R, Santos T, Amar A, et al. Argonaute-2 promotes miR-18a entry in human brain endothelial cells. J Am Heart Assoc. 2014; 3(3):e000968) ECs were only used between passages 3-5. Experiments were performed under shear flow conditions (12 dyn/cm^2) to reproduce arterial flow^6. (Ferreira R, Santos T, Amar A, et al. MicroRNA-18a improves human cerebral arteriovenous malformation endothelial cell function. Stroke. 2014; 45(1):293-297). For hypoxic experiments, cells were cultured in a Galaxy 48R (Eppendorf) incubator at 3% O2. MicroRNAs were co-administered with Ago-2 to increase the cellular uptake of miR-18a^9 (Ferreira R, Santos T, Amar A, et al. Argonaute-2 promotes miR-18a entry in human brain endothelial cells. J Am Heart Assoc. 2014; 3(3):e000968) (FIG. 9). Methods regarding cell treatments and transfections were included in Data.
# (§2) MiR-18a (hsa-miR-18a-5p, 40 nM, Dharmacon) or a scramble microRNA (40 nM, Dharmacon) in nuclease-free water was added with argonaute 2 (Ago-2, 0.4 nM, Abcam) as the microRNA carrier and stabilizer^9. (Ferreira R, Santos T, Amar A, et al. Argonaute-2 promotes miR-18a entry in human brain endothelial cells. J Am Heart Assoc. 2014; 3(3):e000968). No transfection reagent was used with miR-18a or scramble microRNA treatments. Recombinant human TSP-1 (R&D Systems) stock solution was prepared in PBS and further diluted in culture medium to be used at a final concentration of 1000 ng/mL. Cells were treated during 24 h for mRNA and 48 h for protein expression studies. NEO100 (NeOnc Technologies) stock was prepared in DMSO and used immediately or stored at −20° C.
# The levels of angiogenesis-related proteins were analyzed using the Proteome Profiler™ Human Angiogenesis Array kit (R&D Systems) following the manufacturer's instructions. The protocol for western blot was published^10. (Marín-Ramos N I, Alonso D, Ortega-Gutiérrez S, et al. New inhibitors of angiogenesis with antitumor activity in vivo. J Med Chem. 2015; 58(9):3757-3766). Information about antibodies used was included in Table 1. Membranes were visualized and quantified using a C-Digit Blot scanner (Li-Cor) or a iBright CL1000 (Thermo Fisher Scientific).
# BEC [2] = test: Western blot of control BEC lysates; format: cell-based, human; settings: untreated vs scramble vs miR-18a
# From the text: as §1, with “(Ferreira R, Santos T, Amar A, et al. MicroRNA-18a improves human cerebral arteriovenous malformation endothelial cell function. Stroke. 2014; 45(1):293-297). For hypoxic experiments, cells were cultured in a Galaxy 48R (Eppendorf) incubator at 3% O2. MicroRNAs were co-administered with Ago-2 to increase the cellular uptake of miR-18a^9 (Ferreira R, Santos T, Amar A, et al. Argonaute-2 promotes miR-18a entry in human brain endothelial cells. J Am Heart Assoc. 2014; 3(3):e000968) (FIG. 9). Methods regarding cell treatments and transfections were included in Data.” left out
# The levels of angiogenesis-related proteins were analyzed using the Proteome Profiler™ Human Angiogenesis Array kit (R&D Systems) following the manufacturer's instructions. […] Membranes were visualized and quantified using a C-Digit Blot scanner (Li-Cor) or a iBright CL1000 (Thermo Fisher Scientific).
# AVM-BEC [3] = test: RT-qPCR mRNA expression in AVM-BEC; format: cell-based, human
# From the text: as §1, §2
# The extraction and analysis of total mRNA and microRNAs were described^9,13. (Ferreira R, Santos T, Amar A, et al. Argonaute-2 promotes miR-18a entry in human brain endothelial cells. J Am Heart Assoc. 2014; 3(3):e000968) (Marín-Ramos N I, Jhaveri N, Thein T Z, Fayngor R A, Chen T C, Hofman F M. NEO212, a conjugate of temozolomide and perillyl alcohol, blocks the endothelial-to-mesenchymal transition in tumor-associated brain endothelial cells in glioblastoma. Cancer Lett. 2018; 442:170-180). The Human Notch Signaling Pathway RT^2 Profiler PCR Array (Qiagen) was used to analyze the expression of 84 genes related to Notch signaling. For mRNA studies, […] (B2M) was measured for sample normalization. The primer sequences were included in Table 2. For microRNA analysis, RNU44 and U6 snRNA TaqMan microRNA Control Assays were used for normalization of human and mice samples, respectively.
# BEC [4] = test: RT-qPCR mRNA expression in control BEC; format: cell-based, human
# From the text: as §1, §2
# The extraction and analysis of total mRNA and microRNAs were described^9,13. […] For mRNA studies, 02-Microglobulin (B2M) was measured for sample normalization. […]
# AVM-BEC [5] = test: Invasion assay, Matrigel-coated Boyden chamber, AVM-BEC; format: cell-based, human; settings: overnight, P=0.0012
# From the text: The chemoinvasion assay was described^14. (Marín-Ramos N I, Thein T Z, Cho H-Y, et al. NEO212 inhibits migration and invasion of glioma stem cells. Mol Cancer Ther. 2018; 17(3):625-637). Pictures were captured using an Eclipse 80i microscope (Nikon), and cells counted with ImageJ Software (NIH).
# AVM-BEC [6] = settings: previous results from our laboratory (Ferreira 2014); cited from earlier work
substance,measurement,setting,value
hsa-miR-18a-5p (UAGGUGCAUCUAGUGCAGAUAG; chemistry not given here; listed as Homo sapiens) [small non-coding RNA molecule involved in post-transcriptional regulation of gene expression; Dharmacon],"bFGF levels, decrease compared to scramble miR-treated AVM-BEC","AVM-BEC [1]; shear flow 12 dyn/cm2, miR-18a 40 nM with Ago-2 0.4 nM, n=1",2 fold
same,"IGFBP-1 levels, upregulation compared to scramble miR-treated AVM-BEC","AVM-BEC [1]; shear flow, miR-18a 40 nM with Ago-2, n=1",2 fold
same,TSP-1 protein levels in AVM-BEC lysates,"AVM-BEC [1]; vs scramble miR, n=1",did not observe any relevant differences
same,downregulation of PAI-1,"AVM-BEC [1]; vs scramble miR, n=1",20%
same,upregulation of endothelin-1 (ET-1),"AVM-BEC [1]; vs scramble miR, n=1",> 20%
same,upregulation of pentraxin 3 (PTX3),"AVM-BEC [1]; vs scramble miR, n=1",> 20%
same,"levels of bFGF, ET-1, PAI-1 and VEGF (western blot)",BEC [2],remained unaltered
same,BMP4 mRNA expression,"AVM-BEC [3]; AVM-BEC, 24 h, vs scramble, P=0.0022",normalized
same,MMP2 mRNA expression,"AVM-BEC [3]; AVM-BEC, P=0.0004",normalized
same,MMP9 mRNA expression,"AVM-BEC [3]; AVM-BEC, P=0.0091",normalized
same,HIF-1α expression,"AVM-BEC [3]; AVM-BEC, hypoxia 3% O2",remained unaltered
same,HIF-1α expression,"AVM-BEC [3]; AVM-BEC, normoxia",significantly (P=0.0025) decreased
same,ALK2 mRNA expression,"AVM-BEC [3]; AVM-BEC, vs scramble, P<0.0001",normalized
same,MGP mRNA expression,"AVM-BEC [3]; AVM-BEC, vs scramble, P<0.0001",normalized
same,ALK1 mRNA expression,"AVM-BEC [3]; AVM-BEC, vs scramble, P=0.0013",normalized
same,ALK5 mRNA expression,"AVM-BEC [3]; AVM-BEC, vs scramble, P=0.0072",normalized
same,BMP9 mRNA expression,"AVM-BEC [3]; non-HHT related AVM-BEC, P>0.05",No significant differences
same,ALK1 mRNA expression,BEC [4]; P=0.0482,decreased
same,"BMP4, ALK2, ALK5 and MGP mRNA expression",BEC [4]; P>0.05,No significant differences
same,HIF-1α expression,BEC [4]; hypoxia 3% O2,remained unaltered
same,HIF-1α expression,"BEC [4]; normoxia, P>0.9999",without affecting BEC
same,invasiveness,AVM-BEC [5],decreased
same,TSP-1 release by AVM-BECs (ELISA of cell supernatants),AVM-BEC [6],induces TSP-1 release

# From US20230212571A1, “COMPOSITIONS AND METHODS FOR DELIVERING POLYNUCLEOTIDES” (NeOnc Technologies, Inc., priority 2020, published 2023)
